PMC9046089, “CCNE1 amplification is synthetic lethal with PKMYT1 kinase inhibition” (Nature, 2022)
“And” between values parts separate entries of the source, which are not always exact repeats. Equal entries are not always repeated.

Tests used:
Assay type in all cases: in vivo, mouse
HCC1569 xenografts = test: Cell line-derived xenograft, tumour growth; settings: Gem 20mg/kg QWx4 IP
Experimental: (§1) HCC1569, OVCAR3 and SUM149PT cells were implanted at 5 × 10^6 cells per mouse into the right flanks of female CB17-SCID, SCID-beige and NOD-SCID mice respectively (5–7 weeks old; Charles River), in 1:1 Matrigel:medium (Matrigel Corning, cat. no. CB35248).
(§2) Gemcitabine was administered once weekly intraperitoneally in saline. Animals were monitored for tumour volume, clinical signs and body weight three times per week. Tumour volume was measured using a digital calliper and calculated using the formula 0.52 × L × W^2, where L is length and W is width. Response to treatment was evaluated for tumour growth inhibition (% TGI). […] TV is tumour volume and subscripts indicate treatment group and time of sampling. According to NIACC and IACUC approved animal protocols, mice were euthanized as soon as their tumour volume exceeded 2,000 mm^3. Change in body weight (BW) was calculated using the formula: %BW change = (BWlast − BWday0/BWday0) × 100. BW change was calculated based on individual body weight changes relative to day 0. Statistical significance relative to vehicle control or other test groups was established by one-way ANOVA followed by Fisher’s least significant difference test for multiple groups and unpaired t-test for two group comparisons (GraphPad Prism v9.0). Investigators were not blinded during data collection and analysis.

OVCAR3 xenografts = test: Cell line-derived xenograft, tumour growth; settings: Gem 20mg/kg QWx4 IP
Experimental: as §1, §2

[1] = Body weight change of tumour-bearing mice; settings: Gem 20mg/kg QWx4 IP, individual mice
Experimental: as §2

Nc1ccn([C@@H]2O[C@H](CO)[C@@H](O)C2(F)F)c(=O)n1 [Gem]
Tumor growth of HCC1569 xenografts (HCC1569 xenografts; time 0, individual animals): 105.749 and 117.204 and 102.711 and 148.478 and 128.24 and 85.4122 and 124.681 | HCC1569 tumor volume (mm3) (HCC1569 xenografts; time 0, individual mice): 105.749 mm3 and 117.204 mm3 and 102.711 mm3 and 148.478 mm3 and 128.24 mm3 and 85.4122 mm3 and 124.681 mm3 | Tumor growth of HCC1569 xenografts (HCC1569 xenografts; time 3, individual animals): 151.536 and 159.659 and 162.777 and 151.443 and 177.63 and 154.669 and 192.079 | HCC1569 tumor volume (mm3) (HCC1569 xenografts; time 3, individual mice): 151.536 mm3 and 159.659 mm3 and 162.777 mm3 and 151.443 mm3 and 177.63 mm3 and 154.669 mm3 and 192.079 mm3 | Tumor growth of HCC1569 xenografts (HCC1569 xenografts; time 7, individual animals): 138.854 and 145.293 and 143.642 and 108.998 and 199.13 and 137.034 and 160.487 | HCC1569 tumor volume (mm3) (HCC1569 xenografts; time 7, individual mice): 138.854 mm3 and 145.293 mm3 and 143.642 mm3 and 108.998 mm3 and 199.13 mm3 and 137.034 mm3 and 160.487 mm3 | Tumor growth of HCC1569 xenografts (HCC1569 xenografts; time 9, individual animals): 174.796 and 137.503 and 143.242 and 176.878 and 226.134 and 163.467 and 188.183 | HCC1569 tumor volume (mm3) (HCC1569 xenografts; time 9, individual mice): 174.796 mm3 and 137.503 mm3 and 143.242 mm3 and 176.878 mm3 and 226.134 mm3 and 163.467 mm3 and 188.183 mm3 | Tumor growth of HCC1569 xenografts (HCC1569 xenografts; time 11, individual animals): 223.015 and 184.936 and 195 and 179.883 and 241.724 and 153.608 and 171.36 | HCC1569 tumor volume (mm3) (HCC1569 xenografts; time 11, individual mice): 223.015 mm3 and 184.936 mm3 and 195 mm3 and 179.883 mm3 and 241.724 mm3 and 153.608 mm3 and 171.36 mm3 | Tumor growth of HCC1569 xenografts (HCC1569 xenografts; time 14, individual animals): 204.003 and 261.558 and 183.38 and 118.879 and 239.252 and 185.171 and 204.752 | HCC1569 tumor volume (mm3) (HCC1569 xenografts; time 14, individual mice): 204.003 mm3 and 261.558 mm3 and 183.38 mm3 and 118.879 mm3 and 239.252 mm3 and 185.171 mm3 and 204.752 mm3 | Tumor growth of HCC1569 xenografts (HCC1569 xenografts; time 16, individual animals): 195.461 and 216.259 and 164.879 and 153.977 and 196.654 and 193.17 and 190.906 | HCC1569 tumor volume (mm3) (HCC1569 xenografts; time 16, individual mice): 195.461 mm3 and 216.259 mm3 and 164.879 mm3 and 153.977 mm3 and 196.654 mm3 and 193.17 mm3 and 190.906 mm3 | Tumor growth of HCC1569 xenografts (HCC1569 xenografts; time 18, individual animals): 221.924 and 212.425 and 129.02 and 208.213 and 166.677 and 229.196 and 227.014 | HCC1569 tumor volume (mm3) (HCC1569 xenografts; time 18, individual mice): 221.924 mm3 and 212.425 mm3 and 129.02 mm3 and 208.213 mm3 and 166.677 mm3 and 229.196 mm3 and 227.014 mm3 | Tumor growth of HCC1569 xenografts (HCC1569 xenografts; time 21, individual animals): 185.067 and 156.685 and 149.724 and 161.993 and 145.441 and 216.395 and 247.024 | HCC1569 tumor volume (mm3) (HCC1569 xenografts; time 21, individual mice): 185.067 mm3 and 156.685 mm3 and 149.724 mm3 and 161.993 mm3 and 145.441 mm3 and 216.395 mm3 and 247.024 mm3 | Tumor growth of HCC1569 xenografts (HCC1569 xenografts; time 23, individual animals): 177.467 and 131.768 and 165.163 and 189.467 and 130.853 and 205.401 and 303.013 | HCC1569 tumor volume (mm3) (HCC1569 xenografts; time 23, individual mice): 177.467 mm3 and 131.768 mm3 and 165.163 mm3 and 189.467 mm3 and 130.853 mm3 and 205.401 mm3 and 303.013 mm3 | Tumor growth of OVCAR3 xenografts (OVCAR3 xenografts; time 0, individual animals): 127.251 and 90.8608 and 112.694 and 96.336 and 125.032 and 141.631 and 118.987 | Tumor growth of OVCAR3 xenografts (OVCAR3 xenografts; time 3, individual animals): 203.437 and 160.884 and 245.447 and 183.946 and 210.941 and 179.854 and 163.096 | Tumor growth of OVCAR3 xenografts (OVCAR3 xenografts; time 7, individual animals): 169.802 and 183.034 and 268.576 and 188.758 and 168.18 and 112.682 and 213.401 | Tumor growth of OVCAR3 xenografts (OVCAR3 xenografts; time 9, individual animals): 250.578 and 145.319 and 296.396 and 174.266 and 208.875 and 111.675 and 222.442 | Tumor growth of OVCAR3 xenografts (OVCAR3 xenografts; time 11, individual animals): 150.312 and 146.391 and 223.166 and 200.774 and 206.854 and 146.012 and 157.334 | Tumor growth of OVCAR3 xenografts (OVCAR3 xenografts; time 14, individual animals): 213.268 and 123.935 and 200.751 and 155.809 and 196.515 and 140.875 and 141.404 | Tumor growth of OVCAR3 xenografts (OVCAR3 xenografts; time 16, individual animals): 237.66 and 135.959 and 229.1 and 226.618 and 235.663 and 103.266 and 203.735 | Tumor growth of OVCAR3 xenografts (OVCAR3 xenografts; time 18, individual animals): 251.017 and 162.673 and 318.873 and 214.059 and 306.209 and 174.974 and 210.077 | Tumor growth of OVCAR3 xenografts (OVCAR3 xenografts; time 21, individual animals): 247.655 and 170.92 and 321.104 and 222.893 and 230.514 and 99.1867 and 166.154 | Tumor growth of OVCAR3 xenografts (OVCAR3 xenografts; time 23, individual animals): 217.609 and 142.992 and 287.288 and 218.481 and 211.021 and 149.048 and 110.272 | Tumor growth of OVCAR3 xenografts (OVCAR3 xenografts; time 25, individual animals): 172.222 and 104.59 and 228.551 and 206.723 and 216.753 and 107.406 and 123.877 | Tumor growth of OVCAR3 xenografts (OVCAR3 xenografts; time 28, individual animals): 184.75 and 98.3676 and 117.318 and 112.167 and 170.273 and 123.013 and 138.241 | Tumor growth of OVCAR3 xenografts (OVCAR3 xenografts; time 31, individual animals): 217.819 and 125.965 and 185.385 and 170.168 and 195 and 193.032 and 178.082 | Tumor growth of OVCAR3 xenografts (OVCAR3 xenografts; time 35, individual animals): 357.498 and 160.976 and 228.46 and 273.584 and 249.247 and 117.028 and 138.719 | Change in body weight (%) HCC1569 ([1]; time 0): 0% | Change in body weight (%) HCC1569 ([1]; time 3): 2.186% and 4.278% and -2.094% and 2.073% and 1.538% and -0.9709% and -1.493% | Change in body weight (%) HCC1569 ([1]; time 7): 3.279% and 3.743% and 1.047% and 5.181% and 1.026% and 0% and 1.99% | Change in body weight (%) HCC1569 ([1]; time 9): 0.5464% and 3.209% and 0.5236% and 3.109% and 2.5641% and 2.427% and 1.99% | Change in body weight (%) HCC1569 ([1]; time 11): 3.279% and 2.6738% and 1.571% and 2.591% and 0.5128% and 1.456% and 3.483% | Change in body weight (%) HCC1569 ([1]; time 14): 7.104% and 10.1604% and 2.6178% and 8.808% and 4.103% and 2.913% and 2.985% | Change in body weight (%) HCC1569 ([1]; time 16): 9.29% and 6.417% and 2.6178% and 5.181% and 3.077% and 4.854% and 4.975% | Change in body weight (%) HCC1569 ([1]; time 18): 8.197% and 8.556% and 3.141% and 6.218% and 3.59% and 6.796% and 0.995% | Change in body weight (%) HCC1569 ([1]; time 21): 12.5683% and 10.6952% and 5.759% and 9.326% and 8.205% and 11.6505% and 10.4478% | Change in body weight (%) HCC1569 ([1]; time 23): 13.1148% and 9.626% and 4.712% and 9.845% and 6.154% and 6.311% and 3.9801% | Change in body weight (%) OVCAR3 ([1]; day 0): 0% | Change in body weight (%) OVCAR3 ([1]; day 3): 1.389% and -3.111% and 1.796% and -4.018% and -0.4608% and -5.195% and 2.427% | Change in body weight (%) OVCAR3 ([1]; day 7): 4.63% and 0.4444% and 0.5988% and -2.232% and -0.9217% and 0% and 3.8835% | Change in body weight (%) OVCAR3 ([1]; day 9): 4.167% and -2.667% and 0% and -0.8929% and -3.226% and -2.1645% and 3.8835% | Change in body weight (%) OVCAR3 ([1]; day 11): 0% (2×) and -3.556% and 1.796% and -1.786% and -3.687% and 7.767% | Change in body weight (%) OVCAR3 ([1]; day 14): 2.778% and -1.333% and 0.5988% and -0.8929% and 0% and 0.8658% and 9.709% | Change in body weight (%) OVCAR3 ([1]; day 16): 3.7037% and -2.667% and -0.5988% and -1.786% and -4.147% and 0.4329% and 7.282% | Change in body weight (%) OVCAR3 ([1]; day 18): 4.63% and -2.222% and 0.5988% and -0.4464% and 1.843% and -1.7316% and 4.854% | Change in body weight (%) OVCAR3 ([1]; day 21): 8.7963% and 1.778% and 1.796% and -0.4464% and 2.765% and 0% and 8.252%
